Measurements reported in patent US11878975B2, “Substituted indole compounds useful as TLR inhibitors” (BRISTOL-MYERS SQUIBB COMPANY, priority 2017, dated 2024).

Legend:
Type in all cases: cell-based
[1] = biological target: T1, human TLR9 (Homo sapiens, UniProt Q9NR96); assay: TLR9 inhibition reporter assay (HEK-Blue cells, SEAP reporter, ODN2006 stimulation); details: HEK-Blue cells overexpressing human TLR9, SEAP reporter, ODN2006 5 nM
T1 construct: host or cells: HEK-Blue cells
T1 sequence (Q9NR96 26-1032): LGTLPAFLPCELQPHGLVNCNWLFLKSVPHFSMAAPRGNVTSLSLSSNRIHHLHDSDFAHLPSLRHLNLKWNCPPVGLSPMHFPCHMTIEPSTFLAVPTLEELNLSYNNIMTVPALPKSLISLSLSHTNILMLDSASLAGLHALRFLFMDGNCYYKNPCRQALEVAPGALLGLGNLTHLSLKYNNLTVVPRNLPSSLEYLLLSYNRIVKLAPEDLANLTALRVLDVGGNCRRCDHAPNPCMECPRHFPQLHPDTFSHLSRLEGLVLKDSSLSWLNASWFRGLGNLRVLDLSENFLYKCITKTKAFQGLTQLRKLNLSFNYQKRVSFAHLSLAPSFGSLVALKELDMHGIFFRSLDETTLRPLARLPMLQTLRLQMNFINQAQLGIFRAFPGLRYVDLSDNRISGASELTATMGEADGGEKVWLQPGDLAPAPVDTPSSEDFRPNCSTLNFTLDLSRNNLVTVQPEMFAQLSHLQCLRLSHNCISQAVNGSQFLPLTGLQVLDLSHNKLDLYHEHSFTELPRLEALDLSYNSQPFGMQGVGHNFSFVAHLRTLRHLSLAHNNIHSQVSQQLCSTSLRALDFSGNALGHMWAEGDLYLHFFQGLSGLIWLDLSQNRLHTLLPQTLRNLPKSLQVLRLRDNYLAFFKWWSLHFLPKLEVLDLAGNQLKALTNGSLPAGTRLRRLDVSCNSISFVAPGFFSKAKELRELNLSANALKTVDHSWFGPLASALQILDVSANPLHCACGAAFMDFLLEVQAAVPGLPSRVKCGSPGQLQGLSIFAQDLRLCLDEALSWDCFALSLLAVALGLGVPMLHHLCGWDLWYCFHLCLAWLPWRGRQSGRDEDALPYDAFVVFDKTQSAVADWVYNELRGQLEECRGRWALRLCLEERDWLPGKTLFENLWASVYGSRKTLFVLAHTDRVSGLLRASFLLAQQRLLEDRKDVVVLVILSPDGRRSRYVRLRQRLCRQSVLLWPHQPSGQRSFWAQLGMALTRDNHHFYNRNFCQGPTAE
Method in brief: (§1)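 Ligand levels: TLR7 gardiquimod 7.5 μM, TLR8 R848 15.9 μM, TLR9 ODN2006 5 nM, added after 30 min room-temperature compound pre-incubation at 0.05 nM-50 μM. Reporter SEAP read with HEK-Blue Detection reagent after 22 h, 37° C. Inhibition expressed as % reduction relative to agonist-plus-DMSO and known-inhibitor controls.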

[2] = biological target: T2, human TLR8 (Homo sapiens, UniProt Q9NR97); assay: TLR8 inhibition reporter assay (HEK-Blue cells, SEAP reporter, R848 stimulation); details: HEK-Blue cells overexpressing human TLR8, SEAP reporter, R848 15.9 μM
T2 construct: host or cells: HEK-Blue cells
T2 sequence (Q9NR97 27-1041): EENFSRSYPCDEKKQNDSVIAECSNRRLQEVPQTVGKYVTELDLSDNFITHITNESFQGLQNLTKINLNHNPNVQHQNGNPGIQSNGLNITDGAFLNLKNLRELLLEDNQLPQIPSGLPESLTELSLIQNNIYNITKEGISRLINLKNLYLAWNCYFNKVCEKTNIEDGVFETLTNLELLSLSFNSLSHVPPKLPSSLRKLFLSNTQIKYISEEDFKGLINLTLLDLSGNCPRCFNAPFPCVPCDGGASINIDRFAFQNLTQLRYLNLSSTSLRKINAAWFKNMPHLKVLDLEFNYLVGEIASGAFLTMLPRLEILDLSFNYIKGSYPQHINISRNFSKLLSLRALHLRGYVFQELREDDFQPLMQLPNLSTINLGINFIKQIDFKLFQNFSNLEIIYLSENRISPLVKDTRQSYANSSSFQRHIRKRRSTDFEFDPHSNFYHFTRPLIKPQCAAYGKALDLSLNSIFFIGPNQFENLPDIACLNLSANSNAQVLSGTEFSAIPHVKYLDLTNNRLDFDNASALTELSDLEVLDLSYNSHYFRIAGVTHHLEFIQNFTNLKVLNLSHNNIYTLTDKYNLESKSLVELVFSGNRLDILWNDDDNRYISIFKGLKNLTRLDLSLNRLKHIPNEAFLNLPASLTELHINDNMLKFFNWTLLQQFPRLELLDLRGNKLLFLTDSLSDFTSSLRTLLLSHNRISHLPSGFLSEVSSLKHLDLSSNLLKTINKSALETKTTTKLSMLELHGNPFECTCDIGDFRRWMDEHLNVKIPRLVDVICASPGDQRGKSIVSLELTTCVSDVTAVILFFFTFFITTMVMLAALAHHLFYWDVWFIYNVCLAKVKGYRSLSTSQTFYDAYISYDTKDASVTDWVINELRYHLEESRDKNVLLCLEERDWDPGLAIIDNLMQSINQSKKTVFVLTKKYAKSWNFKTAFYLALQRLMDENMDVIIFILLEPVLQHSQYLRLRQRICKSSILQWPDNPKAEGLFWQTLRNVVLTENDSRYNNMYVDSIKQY
Method in brief: as §1

[3] = biological target: T3, human TLR7 (Homo sapiens, UniProt Q9NYK1); assay: TLR7 inhibition reporter assay (HEK-Blue cells, SEAP reporter, gardiquimod stimulation); details: HEK-Blue cells overexpressing human TLR7, SEAP reporter, gardiquimod 7.5 μM
T3 construct: host or cells: HEK-Blue cells
T3 sequence (Q9NYK1 27-1049): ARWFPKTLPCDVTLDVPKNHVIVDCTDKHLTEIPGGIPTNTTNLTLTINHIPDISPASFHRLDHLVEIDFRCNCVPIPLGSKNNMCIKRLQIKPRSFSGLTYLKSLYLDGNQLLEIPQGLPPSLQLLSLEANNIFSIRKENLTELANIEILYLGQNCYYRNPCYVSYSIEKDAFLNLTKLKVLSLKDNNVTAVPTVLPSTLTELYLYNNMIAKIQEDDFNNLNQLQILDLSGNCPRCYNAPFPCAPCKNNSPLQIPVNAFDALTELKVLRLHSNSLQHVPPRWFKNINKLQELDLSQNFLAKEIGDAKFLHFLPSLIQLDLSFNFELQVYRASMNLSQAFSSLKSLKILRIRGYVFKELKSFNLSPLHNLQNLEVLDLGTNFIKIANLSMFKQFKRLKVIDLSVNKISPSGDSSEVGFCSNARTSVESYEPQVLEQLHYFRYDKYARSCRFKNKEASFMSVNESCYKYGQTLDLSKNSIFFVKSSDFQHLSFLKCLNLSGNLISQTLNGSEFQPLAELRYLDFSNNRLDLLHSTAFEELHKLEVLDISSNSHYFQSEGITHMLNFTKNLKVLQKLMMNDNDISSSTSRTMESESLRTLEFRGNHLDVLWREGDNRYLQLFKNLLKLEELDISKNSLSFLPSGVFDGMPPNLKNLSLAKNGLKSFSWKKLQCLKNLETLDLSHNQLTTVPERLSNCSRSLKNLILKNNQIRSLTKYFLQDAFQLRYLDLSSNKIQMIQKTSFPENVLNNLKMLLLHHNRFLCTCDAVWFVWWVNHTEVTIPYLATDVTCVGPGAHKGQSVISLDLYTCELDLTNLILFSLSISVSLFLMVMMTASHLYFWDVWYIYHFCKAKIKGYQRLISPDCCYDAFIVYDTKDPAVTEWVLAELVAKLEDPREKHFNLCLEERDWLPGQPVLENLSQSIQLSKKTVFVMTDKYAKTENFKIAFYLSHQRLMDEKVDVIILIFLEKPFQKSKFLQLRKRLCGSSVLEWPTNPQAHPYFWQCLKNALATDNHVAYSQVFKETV
Method in brief: as §1

Structure (SMILES) | IC50 [1] | IC50 [2] | IC50 [3]
Cc1cc(-c2[nH]c3ccc(C4CCCN(C(=O)[C@@H]5CCN5)C4)cc3c2C(C)C)cc(C)n1 (stereo partly drawn) [Example 220] | 0.339 µM | 0.011 µM | 0.001 µM
COc1cc(-c2[nH]c3ccc(C4CC5CN(C6COC6)CC5C4)cc3c2C(C)C)cn2ncnc12 (stereo not drawn) [Example 513] | 12.5 µM | 0.02 µM | 0.00096 µM
Cc1c(-c2[nH]c3ccc(C4CC5CN(CC(=O)N(C)C)CC5C4)cc3c2C(C)C)cn2ncnc2c1C (stereo not drawn) [Example 507] | 8.18 µM | 0.014 µM | 0.003 µM
Cc1cc(-c2[nH]c3ccc(CCN4CCS(=O)(=O)CC4)cc3c2C(C)C)cc(C)n1 [Example 401] | 3.43 µM | 0.086 µM | 0.027 µM
Cc1c(-c2[nH]c3ccc(C4CCCNC4)cc3c2C(C)C)cn2ncnc2c1C (stereo not drawn) [Example 189] | 1.03 µM | 0.00023 µM | 0.00034 µM
Cc1c(-c2[nH]c3ccc(CC4CN(C(C)C)C4)cc3c2C(C)C)cn2ncnc2c1C [Example 435] | 3.41 µM | 0.0025 µM | 0.01 µM
Cc1cc(-c2[nH]c3ccc(C4CCC(NC5CC5)CC4)cc3c2C(C)C)cn2ncnc12 (single isomer, unassigned) [Example 16] | 0.661 µM | 0.00047 µM | 0.00015 µM
Cc1cc(-c2[nH]c3ccc(C4CNCCO4)cc3c2C(C)C)cn2ncnc12 (stereo not drawn) [Example 282] | 3.8 µM | 0.001 µM | 0.00066 µM
Cc1c(-c2[nH]c3ccc(C4CN(C5COC5)C4)cc3c2C(C)C)cn2ncnc2c1C [Example 544] | 21 µM | 0.012 µM | 0.005 µM
COc1cc(-c2[nH]c3ccc(C4CCCN(CC(N)=O)C4)cc3c2C(C)C)cn2ncnc12 (stereo not drawn) [Example 234] | 7.37 µM | 0.0057 µM | 0.003 µM
Cc1c(-c2[nH]c3ccc(C4CCC(N(C)C)CC4)cc3c2C(C)C)cn2ncnc2c1C (stereo not drawn) [Example 111] | 4.1 µM | 0.0026 µM | 0.001 µM
COc1cc(-c2[nH]c3ccc(C4CN(C)C(C)(C)CO4)cc3c2C(C)C)cn2ncnc12 (stereo not drawn) [Example 377] | 4.72 µM | 0.0052 µM | 0.002 µM
COc1cc(-c2[nH]c3ccc(C4CCC(N(C)CC(F)F)CC4)cc3c2C(C)C)cn2ncnc12 (stereo not drawn) [Example 74] | 24.5 µM | 0.013 µM | 0.003 µM
Cc1c(-c2[nH]c3ccc(C4CN(CCCC(F)(F)F)C4)cc3c2C(C)C)cn2cnnc2c1C [Example 554] | 5.2 µM | 0.015 µM | 0.018 µM
COc1cc(-c2[nH]c3ccc(C4CC5CN(CC(=O)N(C)C)CC5C4)cc3c2C(C)C)cn2ncnc12 (stereo not drawn) [Example 509] | 2.34 µM | 0.0024 µM | 0.00027 µM
Cc1cc(-c2[nH]c3ccc(C4CN(C)CCO4)cc3c2C(C)C)cn2ncnc12 (stereo not drawn) [Example 297] | 6.63 µM | 0.00061 µM | 0.002 µM
Cc1cc(-c2[nH]c3ccc(C4CCC(NCC(C)(C)O)CC4)cc3c2C(C)C)cn2ncnc12 (stereo not drawn) [Example 104] | 6.41 µM | 0.0065 µM | 0.003 µM
Cc1cc(-c2[nH]c3ccc(C4CN(C)C(C)(C)CO4)cc3c2C(C)C)cn2ncnc12 (single isomer, unassigned) [Example 376, 2-(3-isopropyl-2-(8-methyl-[1,2,4]triazolo[1,5-a]pyridin-6-yl)-1H-indol-5-yl)-4,5,5-trimethylmorpholine] | 2.67 µM | 0.0021 µM | 0.002 µM
COc1cc(-c2[nH]c3ccc(C4CCCN(C(C)C)C4)cc3c2C(C)C)cn2ncnc12 (stereo not drawn) [Example 236, 6-(3-isopropyl-5-(1-isopropylpiperidin-3-yl)-1H-indol-2-yl)-8-methoxy-[1,2,4]triazolo[1,5-a]pyridine] | 1.25 µM | 0.00046 µM | 0.001 µM
